From ChEMBL document CHEMBL3885861, “Open TG-GATES”

Organism: Rattus norvegicus
Assay: Open TG-GATES - Regimen: Daily Repeat
Format: toxicity, organism-based, Sprague-Dawley
Design: regimen Daily Repeat, gender Male, age 6 weeks
Settings: in vivo, po, 1 mg/kg, […], route gavage, dose level Low; for KIDNEY_L / KIDNEY_R / KIDNEY_TOTAL: tissue Kidney; for LIVER: tissue Liver; for A/G / ALP / ALT / AST / BUN / CRE / Ca / Cl / DBIL / GLC / IP / K / LDH / Na / PL / RALB / TBIL / TC / TG / TP / gamma-GTP: tissue Plasma

## O=NN(CCCl)C(=O)NC1CCCCC1 [LOMUSTINE]
Tissue Blood, time 28 day
  Lym: 82%
  MCH: 19 pg
  MCHC: 33.3%
  MCV: 57.1 fL
  Mono: 5.4%
  Neu: 11.8%
  PT: 11.6 s
  Plat: 109.6 x10_4/uL
  RBC: 797.4 x10_4/ul
  Ret: 2.6%
  WBC: 167.6 x10_2/uL
Time 7 day
  KIDNEY_L: 1.2 g
  KIDNEY_R: 1.2 g
  KIDNEY_TOTAL: 2.3 g
  LIVER: 12.4 g
  A/G: 2
  ALP: 865.2 IU/L
  ALT: 35.2 IU/L
  AST: 61.6 IU/L
  BUN: 17.6 mg/dL
  CRE: 0.5 mg/dL
  Ca: 10.9 mg/dL
  Cl: 106 meq/L
  DBIL: 0.018 mg/dL
  GLC: 195.2 mg/dL
  IP: 7.5 mg/dL
  K: 4.8 meq/L
  LDH: 87.8 IU/L
  Na: 139.6 meq/L
  PL: 148.2 mg/dL
  RALB: 3.9 g/dL
  TBIL: 0.3 mg/dL
  TC: 79.2 mg/dL
  TG: 71.4 mg/dL
  TP: 5.9 g/dL
  gamma-GTP: 1.2 IU/L
Time 14 day
  KIDNEY_L: 1.3 g
  KIDNEY_R: 1.2 g
  KIDNEY_TOTAL: 2.5 g
  LIVER: 14.7 g
  A/G: 2
  ALP: 821 IU/L
  ALT: 26.2 IU/L
  AST: 56.8 IU/L
  BUN: 19.2 mg/dL
  CRE: 0.5 mg/dL
  Ca: 11.3 mg/dL
  Cl: 106.6 meq/L
  DBIL: 0.01 mg/dL
  GLC: 184.4 mg/dL
  IP: 7.4 mg/dL
  K: 4.8 meq/L
  LDH: 84.6 IU/L
  Na: 139.8 meq/L
  PL: 175.2 mg/dL
  RALB: 4 g/dL
  TBIL: 0.3 mg/dL
  TC: 83.2 mg/dL
  TG: 141.4 mg/dL
  TP: 6.1 g/dL
  gamma-GTP: 1.8 IU/L
Time 28 day
  KIDNEY_L: 1.3 g
  KIDNEY_R: 1.4 g
  KIDNEY_TOTAL: 2.7 g
  LIVER: 16.7 g
  A/G: 1.8
  ALP: 696.4 IU/L
  ALT: 52.8 IU/L
  AST: 103.6 IU/L
  BUN: 20.4 mg/dL
  CRE: 0.4 mg/dL
  Ca: 10.9 mg/dL
  Cl: 105.6 meq/L
  DBIL: 0.006 mg/dL
  GLC: 195.2 mg/dL
  IP: 6.5 mg/dL
  K: 4.5 meq/L
  LDH: 172.8 IU/L
  Na: 139.6 meq/L
  PL: 165.2 mg/dL
  RALB: 4.2 g/dL
  TBIL: 0.3 mg/dL
  TC: 78.6 mg/dL
  TG: 139.8 mg/dL
  TP: 6.5 g/dL
  gamma-GTP: 1.6 IU/L
